Laboratory results from ChEMBL document CHEMBL5230154, “Chemical probe of AHL modulators on quorum sensing in Gram-Negative Bacteria and as antiproliferative agents: A review” (Eur J Med Chem, 2021).
Each block holds one molecule with its values, some of them ahead of it.

Legend:
[1] = molecular target: T1, Transcriptional activator protein LuxR (Vibrio fischeri (strain ATCC 700601 / ES114), UniProt P35327); test: Antagonist activity against LuxR mediated quorum sensing system in Vibrio fischeri ES114 expressing luxI assessed as decrease in luminescence intensity incubated for 4 to 8 hrs by bioluminescence analysis; set-up: species or system Aliivibrio fischeri
T1 sequence (P35327 whole entry): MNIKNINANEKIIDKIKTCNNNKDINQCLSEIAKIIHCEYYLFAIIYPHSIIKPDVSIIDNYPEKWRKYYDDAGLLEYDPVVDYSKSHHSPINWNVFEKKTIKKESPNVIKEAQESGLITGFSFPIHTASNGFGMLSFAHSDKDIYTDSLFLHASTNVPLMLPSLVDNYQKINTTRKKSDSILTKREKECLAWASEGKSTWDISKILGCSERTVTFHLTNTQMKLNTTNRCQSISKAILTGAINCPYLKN

Escherichia coli [2] = test: Inhibition of Escherichia coli MT102 harbouring pJBA132 expressing Gfp assessed as inhibition of GFP fluorescence expression at 250 uM incubated for 15 hrs by fluorescence microplate reader analysis
Pseudomonas aeruginosa [3] = test: Inhibition of Pseudomonas aeruginosa MH602 harboring PlasB::gfp(ASV) reporter assessed as decrease in GFP expression at 250 uM incubated for 22 hrs by fluorescence microplate reader analysis
Pseudomonas aeruginosa [4] = test: Antagonist activity against quorum sensing system in Pseudomonas aeruginosa PAO-JP2 (plasI-LVAgfp) assessed as inhibition of 3-oxo-C12 HSL induced GFP expression at 100 uM incubated for 6 hrs in presence of 1 uM of 3-oxo-C12 HSL by fluorescence analysis
[5] = Inhibition of quorum sensing system in Pseudomonas aeruginosa MW1 assessed as inhibition of LasR expression incubated for 8 to 12 hrs in presence of 3-oxo-C12 HSL by fluorescence analysis
[6] = Inhibition of quorum sensing system in Pseudomonas aeruginosa MW1 assessed as inhibition of LasR expression at 33 uM incubated for 8 to 12 hrs in presence of 3-oxo-C12 HSL by fluorescence analysis; conditions: time 8-12 hrs
[7] = Agonist activity against RhlR in Escherichia coli expressing JLD271/pJN105R2/pSC11-rhlI using CPRG as substrate by spectrophotometric assay
[8] = molecular target: T2, HTH-type quorum-sensing regulator RhlR (Pseudomonas aeruginosa (strain ATCC 15692 / PAO1 / 1C / PRS 101 / LMG12228), UniProt P54292); test: Agonist activity against RhlR in Pseudomonas aeruginosa PAO-JP2 expressing prhlI-LVAgfp using CPRG as substrate by spectrophotometric assay
T2 sequence (P54292 whole entry): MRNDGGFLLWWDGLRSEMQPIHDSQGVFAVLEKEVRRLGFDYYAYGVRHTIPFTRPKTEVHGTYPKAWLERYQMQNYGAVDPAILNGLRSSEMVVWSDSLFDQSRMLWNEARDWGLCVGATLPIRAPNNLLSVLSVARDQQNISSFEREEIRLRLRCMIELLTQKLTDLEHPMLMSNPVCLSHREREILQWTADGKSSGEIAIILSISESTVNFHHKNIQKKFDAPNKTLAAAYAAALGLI

Pseudomonas aeruginosa [9] = test: Inhibition of Pseudomonas aeruginosa MH602 harboring PlasB::gfp(ASV) reporter assessed as decrease in GFP expression at 125 uM incubated for 22 hrs by fluorescence microplate reader analysis
[10] = Inhibition of quorum sensing system in Pseudomonas aeruginosa PA14 assessed as inhibition of pyocyanin production by UV-vis spectrophotometric assay
Pseudomonas aeruginosa [11] = test: Antibiofilm activity against Pseudomonas aeruginosa PAO1 NCTC 10332 assessed as inhibition of biofilm formation incubated for 24 hrs by crystal violet staining based assay; assay type: functional, organism-based; conditions: PAO1 NCTC 10332, 24 h
Serratia marcescens = test: Antibiofilm activity against Serratia marcescens ATCC 27117 assessed as inhibition of biofilm formation incubated for 24 hrs by crystal violet staining based assay; assay type: functional, organism-based; conditions: ATCC 27117, 24 h
[12] = Inhibition of quorum sensing system in Pseudomonas aeruginosa PAO1 assessed as decrease in pqsR expression at 15 uM incubated for 12 hrs by real-time fluorescent quantitative PCR analysis
[13] = Inhibition of quorum sensing system in Pseudomonas aeruginosa PAO1 assessed as inhibition of pyocyanin production at 15 uM incubated for 12 hrs by spectrophotometric assay
[14] = Inhibition of quorum sensing system in Pseudomonas aeruginosa PAO1 assessed as decrease in rhlR expression at 15 uM incubated for 12 hrs by real-time fluorescent quantitative PCR analysis
[15] = Inhibition of quorum sensing system in Pseudomonas aeruginosa PAO1 assessed as inhibition of rhamnolipid production at 15 uM incubated for 12 hrs by spectrophotometric assay
[16] = Inhibition of quorum sensing system in Pseudomonas aeruginosa PAO1 assessed as inhibition of elastase production at 15 uM incubated for 12 hrs by Congo red dye based spectrophotometric assay
[17] = Inhibition of quorum sensing system in Pseudomonas aeruginosa PAO1 assessed as decrease in lasA expression at 15 uM incubated for 12 hrs by real-time fluorescent quantitative PCR analysis
Pseudomonas aeruginosa [18] = test: Inhibition of biofilm formation in Pseudomonas aeruginosa PAO1 incubated for 12 hrs by crystal violet staining based analysis; assay type: functional
[19] = Inhibition of quorum sensing system in Pseudomonas aeruginosa PAO1 assessed as decrease in lasI expression at 15 uM incubated for 12 hrs by real-time fluorescent quantitative PCR analysis
Pseudomonas aeruginosa [20] = test: Inhibition of quorum sensing system in Pseudomonas aeruginosa MH602 expressing PlasB::gfp assessed as inhibition of GFP fluorescence expression at 250 uM incubated for 15 hrs by fluorescence microplate reader analysis
[21] = Inhibition of quorum sensing system in Pseudomonas aeruginosa PAO1 assessed as inhibition of pyocyanin production at 32 uM incubated for 17 hrs by spectrophotometric analysis
[22] = Inhibition of quorum sensing system in Pseudomonas aeruginosa PAO1 assessed as inhibition of pyocyanin production at 250 uM incubated for 17 hrs by spectrophotometric analysis
[23] = molecular target: T3, Transcriptional activator protein LasR (Pseudomonas aeruginosa (strain ATCC 15692 / PAO1 / 1C / PRS 101 / LMG12228), UniProt P25084); test: Antagonist activity against LasR-mediated quorum sensing system in Pseudomonas aeruginosa PAO1 by spectrophotometric assay
T3 sequence (P25084 whole entry): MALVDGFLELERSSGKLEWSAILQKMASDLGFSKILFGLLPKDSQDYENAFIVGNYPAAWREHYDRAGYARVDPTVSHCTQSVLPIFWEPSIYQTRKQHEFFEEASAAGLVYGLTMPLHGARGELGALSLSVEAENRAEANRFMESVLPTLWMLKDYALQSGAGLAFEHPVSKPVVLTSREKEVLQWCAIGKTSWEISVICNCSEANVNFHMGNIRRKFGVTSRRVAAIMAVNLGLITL

Escherichia coli [24] = test: Inhibition of Escherichia coli MT102 harbouring pJBA132 expressing Gfp assessed as inhibition of GFP fluorescence expression at 62.5 uM incubated for 15 hrs by fluorescence microplate reader analysis
[25] = Inhibition of quorum sensing system in Pseudomonas aeruginosa PA14 assessed as inhibition of pyocyanin production incubated for 17 hrs by spectrophotometric assay

SMILES: O=C1Cn2nncc2CNC(=O)C(=O)c2ccccc2NC(=O)Cn2nncc2CNC(=O)C(=O)c2ccccc2N1
inhibition (Escherichia coli [2]): 18.7%
inhibition (Pseudomonas aeruginosa [3]): 74%

SMILES: CCCCC(=O)N[C@H]1CCSC1=O
EC50 [7]: 4870 nM
EC50 [8]: 3820 nM

SMILES: C#CNC(=O)C(=O)c1cc(Br)ccc1NC(=O)CCl
inhibition (Pseudomonas aeruginosa [3]): 31.8%
inhibition (Pseudomonas aeruginosa [9]): 65%

SMILES: C#CNC(=O)C(=O)c1cc(C)ccc1NC(=O)CCl
inhibition (Pseudomonas aeruginosa [3]): 36.9%
inhibition (Pseudomonas aeruginosa [9]): 64.6%

SMILES: CC(C)CCCC(=O)N[C@H]1CCOC1=O
EC50 [7]: 1420 nM
EC50 [8]: 1020 nM

SMILES: NCCCCCCCCCCCCNc1ccnc2cc(Cl)ccc12
IC50 [10]: 2500 nM
IC50 (Pseudomonas aeruginosa [11]): 69000 nM
IC50 (Serratia marcescens): 69000 nM

SMILES: O=C(CC1CCC1)N[C@H]1CCOC1=O
EC50 [7]: 1780 nM
EC50 [8]: 1410 nM

SMILES: O=C1C(Cl)=C(Cl)CN1c1cccc(O)c1
inhibition (Pseudomonas aeruginosa [20]): 78%
inhibition [21]: 80%
inhibition [22]: 90%

SMILES: O=C(Cc1ccc(I)cc1)N[C@H]1CCOC1=O
IC50 [1]: 600 nM

Now from value to molecule, other results behind:

IC50 [1]: 600 nM
SMILES: O=C(Cc1ccc(-c2ccccc2)cc1)N[C@H]1CCOC1=O

inhibition (Pseudomonas aeruginosa [4]): 30%
SMILES: CCCCCCCCCCCC(=O)NC1CCCCC1=O (stereo not drawn)

IC50 [5]: 30000 nM
inhibition [6]: 50%
SMILES: CCCCCCCCCCCCn1nnc(CC(=O)O)n1

inhibition [12]: 72.5%
inhibition [13]: 34.5%
inhibition [14]: 48.4%
inhibition [15]: 28.1%
inhibition [16]: 13.7%
inhibition [17]: 64.1%
inhibition [19]: 55.1%
SMILES: Cc1cccc(NC(=O)NC(=O)CSC(=S)N[C@H]2CCOC2=O)c1
inhibition (INH) (Pseudomonas aeruginosa [18]): 36.2%

IC50 [1]: 600 nM
SMILES: O=C(Cc1ccccc1)N[C@H]1CCOC1=O

inhibition (Pseudomonas aeruginosa [20]): 81.7%
inhibition [21]: 80%
inhibition [22]: 90%
SMILES: O=C1C(Cl)=C(Cl)CN1c1ccccc1

inhibition (Pseudomonas aeruginosa [20]): 80.7%
inhibition [21]: 80%
inhibition [22]: 90%
SMILES: O=C1C(Br)=C(Br)CN1c1ccccc1

inhibition [12]: 45%
inhibition [13]: 31.6%
inhibition [14]: 58.8%
inhibition [15]: 25.8%
IC50 [23]: 17400 nM
inhibition [16]: 16.5%
inhibition [19]: 26.9%
SMILES: CC1=C(Br)/C(=C(\C)Br)OC1=O
inhibition (INH) (Pseudomonas aeruginosa [18]): 28.6%

inhibition (Escherichia coli [24]): 56.5%
SMILES: C#CCNC(=O)C(=O)c1ccccc1NC(=O)CCl

IC50 [25]: 8000 nM
SMILES: O=C(CCCOc1cccc(Br)c1)NC1CCSC1=O (stereo not drawn)
